Reference: patent US6914056B1, “Pharmaceutical compositions comprising cyclic glycerophosphates and analogs thereof for promoting neural cell differentiation” (Yeda Research and Development Co., Ltd., priority 1999, dated 2005)
Entries after “also recorded” stand apart in the source; their conditions may differ.

Legend:
Type in all cases: cell-based, rat
[1] = tested on: PC12 cells; assay: Neural outgrowth of PC12 cells after consecutive seven-day incubation (Example 15, FIG. 3); conditions: PC12 cells incubated for consecutive 7 days; CGs at 0.5 μM
Protocol: (§1) The immortal PC12 cell line is one of the most investigated systems in neuronal differentiation. In the presence of nerve growth factor these cells differentiate to neuronal cells. PC12 cells originated from rat pheochromocytoma were grown as monolayers in Eagle's medium (EM) supplemented with 10% fetal calf serum, 50 μg/ml gentamicin and 5 mM glutamine, in a humidified incubator buffered with 5% CO2, at 37° C. The culture medium is changed every four days and the cells are passaged every eight days and performed confluent monolayers (1.5×10^6 in a 10 cm plate or 10^5 cells per well in 24 wells plate). PC12 cells are originally round cells which, following several days in the presence of nerve growth factor (NGF) process nerves. Upon withdrawal of the NGF, the nerves retract and a process of apoptosis is initiated in the cells.
The cells were incubated with the various factors for a consecutive period of seven days. Neural outgrowth was monitored and microscopic photographs were taken following the seven day incubation with the above factors.

[2] = tested on: PC12 cells; assay: Neuronal outgrowth of PC12 cells, factors in growth medium for 48 hours (Example 12, FIG. 1); conditions: 48 hours in growth medium with factor, 1,3 cGP 1 μM, NGF 50 ng/ml, α glycerophosphate as control
Protocol: as §1
PC12 cells were grown in culture as explained above, the cells were divided into three groups and different factors were added to the growth medium of each group for 48 hours as follows: • Group A—α glycerophosphate. • Group B—nerve growth factor (NGF) at a concentration of 50 ng/ml. • Group C —1,3 cGP at a concentration of 1 μM.
The rate of neuronal growth in each of the above cultures was monitored and documented by microscopic photographs.

[3] = tested on: PC12 cells; assay: Neural outgrowth of PC12 cells after three-hour pulse and wash, photographed on day 7 (Example 14, FIG. 2); conditions: for promotion of neuronal outgrowth (summary statement): PC12 adrenal tumorigenic cells in culture, after a short incubation period; for neural outgrowth (microscopic photographs): PC12 cells pulsed for three hours, washed, grown in growth medium without factor, day 7 after treatment
Protocol: as §1
Cells were grown as described above and divided into groups which were each grown with one of the following:
The above factors were added to the cells for a period of three hours after which they were washed away from the cells. […] The neural outgrowth of the cells was monitored and microscopic photographs were taken on day seven after treatment with the above factors.

[4] = tested on: PC12 cells; assay: Nerve rescue of NGF-differentiated PC12 cells after NGF withdrawal, 14-day culture (Example 19, FIG. 4)
Protocol: as §1
To study nerve rescue by 1,3 cPP, PC12 cells were incubated in tissue culture medium for a period of 14 days. Within this period, the cells were either grown in the presence of nerve growth factor (NGF) for different periods of times or were grown in the presence of 1,3, cPP for various periods of time. Neuronal differentiation and spread was examined in the various cells.

Molecule: O=P(O)(O)OCC(O)CO (stereo in doubt) [αGP, L-α-glycerophosphate, reference compound]
- neural outgrowth (microscopic photographs) [1]: No neural outgrowth was observed
- neural outgrowth (microscopic photographs) [2]: did not promote neural outgrowth

Molecule: O=P1(O)OCC(O)CO1 (centres unmarked) [1,3 cGP, 1,3 cyclic glycerophosphate]
- neural outgrowth (microscopic photographs) [1]: neural outgrowth is observed to different extents
- neural outgrowth (microscopic photographs) [2]: neural outgrowth was clearly seen
- neural outgrowth (microscopic photographs) ([2]; listed as 1,3 GP): Neuronal outgrowth is clearly seen
- promotion of neuronal outgrowth (summary statement) [3]: capable of promoting neuronal outgrowth
- neural outgrowth (microscopic photographs) [3]: Neural outgrowth is seen

Molecule: phenyl 1,3 cyclic glycerophosphate [phenyl-1,3 cGP]
- neural outgrowth (microscopic photographs) [1]: neural outgrowth is observed to different extents
- neural outgrowth (microscopic photographs) [3]: Neural outgrowth is seen

Molecule: O=P1(O)OCCCO1 [1,3 cPP, 1,3 cyclic propanediol phosphate]
- neural outgrowth (microscopic photographs) [1]: neural outgrowth is observed to different extents
- rescue of the neuronal network from retraction ([4]; PC12 cells 7 days with NGF 50 ng/ml, then 7 days with 2 μM, 4 μM or 6 μM 1,3 cPP): partial to full rescue of the neuronal network
- neural outgrowth (microscopic photographs) [3]: Neural outgrowth is seen

Molecule: O=P1(O)OCC(CO)O1 (centres unmarked) [1,2 cGP, 1,2 cyclic glycerophosphate]
- neural outgrowth (microscopic photographs) [1]: neural outgrowth is observed to different extents
- promotion of neuronal outgrowth (summary statement) [3]: capable of promoting neuronal outgrowth
- neural outgrowth (microscopic photographs) [3]: Neural outgrowth is seen

Molecule: phenyl 1,3 cyclic propanediol phosphate [phenyl-1,3 cPP]
- neural outgrowth (microscopic photographs) [1]: neural outgrowth is observed to different extents
- neural outgrowth (microscopic photographs) [3]: Neural outgrowth is seen

Molecule: O=P(O)(O)OC(CO)CO [βGP, β-Glycerophosphate, reference compound]
- neural outgrowth (microscopic photographs) [1]: No neural outgrowth was observed

B1: NGF: nerve growth factor, a growth factor that differentiates PC12 cells to neuronal cells (protein, UniProt P01139 122-241, looked up)
Beta-nerve growth factor: SSTHPVFHMGEFSVCDSVSVWVGDKTTATDIKGKEVTVLAEVNINNSVFRQYFFETKCRASNPVESGCRGIDSKHWNSYCTTTHTFVKALTTDEKQAAWRFIRIDTACVCVLSRKATRRG
- neural outgrowth (microscopic photographs) [1]: neural outgrowth was seen; also recorded: extensive neural outgrowth is seen
- neural outgrowth (microscopic photographs) [2]: neural outgrowth was clearly seen; also recorded: Neuronal outgrowth is clearly seen
- nerve retraction after NGF withdrawal ([4]; PC12 cells 7 days with NGF 50 ng/ml, then 7 days without NGF): complete nerve retraction was observed
- neuronal differentiation ([4]; PC12 cells grown with NGF 50 ng/ml for full 14 days): full neuronal differentiation
- neural outgrowth (microscopic photographs) [3]: did not promote any nerve generation
